Data reported in patent publication US20250302720A1, “PEPTIDE-BASED HAIR TREATMENT” (Sederma, priority 2020, published 2025).
Residues, ends and D or L forms follow the SMILES beside them.

How the values were obtained:
catalase = assay: Catalase activity of the NHM (resorufin reagent); format: cell-based, human; settings: 24 h, vs control
Protocol: NHM almost at confluence are brought into contact with the peptide according to the invention for 24 hours. At the end of this contact, the cells are crushed. The catalase activity extracted from these cells is measured using resorufin reagent. The latter combines with the H2O2 remaining in the reaction well after the action of cellular catalase. A protein assay using bicinchoninic acid (BCA) method is used to estimate the cell quantity to homogenize the obtained data.

BCL-2 gene = BCL-2 gene expression in NHM (qRTPCR); format: cell-based, human; settings: 72 hours, vs control
Protocol: NHM are cultivated and brought into contact with the peptide according to the invention or its solvent. At the end of 72 hours of contact, the melanocytes are crushed, and the mRNA are recovered, converted into cDNA which are analyzed by a qRTPCR to evaluate the changes in the level of expression of the mRNA of BCL-2.

TYRP1 = assay: Expression of melanogenesis genes in NHM (qRTPCR): TYRP1; format: cell-based, human; settings: 72 h, vs control, n = 4
Protocol: NHM are cultivated and brought into contact with the peptide according to the invention or its solvent. At the end of 72 h of contact, the melanocytes are crushed, and the mRNAs are recovered, converted into cDNA which are analyzed by qRTPCR, to estimate the changes in the expression level of the mRNAs. The expression of the following genes has been studied: MITF, TYRP1 and CREB.

[1] = test system: hair follicles (bulb) from a scalp plasty; assay: Melanin production in the bulb of isolated hair follicles kept in survival for 8 days; format: cell-based, human; settings: 10 ppm
Protocol: (§1) Follicles comprising their bulb with little pigment and isolated from a scalp plasty (resulting from cosmetic surgery— donor, dark blond; person) are placed individually in the wells of a culture plate containing the culture medium and maintained for survival (37° C.; 5% CO2).
(§2) Twelve follicles are reserved for T0 to serve as a reference for visual estimation and quantification of pigmentation but also for subsequent labeling of MC1R and MITF by immunohistology (six follicles for each marker).
(§3) Twelve follicles are placed in contact with the peptide according to the invention at 10 ppm in its solvent and twelve others in contact with the solvent alone for 8 days (0.1% DMSO in culture medium). At 8 days, all the follicles are stopped and fixed, then sectioned (7 μm) and marked with alunated carmine and photographed under a microscope. Sections of 6 of them (for each group) are used for visual and quantitative assessment by image analysis of their pigmentation (with specific filter to measure melanin). Sections of the other 6 are used for MC1R and MITF scoring, which is to be assessed by visual estimation.

MC1R = MC1R labelling by immunohistology in isolated hair follicles; format: cell-based, human; settings: 10 ppm, 8 days
Protocol: as §1, §2, §3

[2] = test system: grey/white hair of volunteers; assay: In-vivo grey/white hair density in volunteers (standardized photos, Image J image analysis); set-up: species or system human
Protocol: (§4) The in-vivo tests were carried out by applying the hair lotion described above in point 1) in the Galenic part. This lotion comprises 90 ppm of the peptide of the invention. Four independent studies were conducted with a total of 84 volunteers (average age of the entire panel of selected volunteers was 42 years). All four studies were conducted over a wide range of geographical locations, times, seasons, application sites, phototypes and methods. The details are specified in the below table.
All the studies used a complex photographic system, with the camera mounted on a bench to ensure perfect repositioning of the volunteer's head at all study times. For each volunteer, profile photos, and in some studies also of the back or the top of the head, were taken in cross-polarized mode to eliminate any parasitic shine so as not to interfere with the image analysis photo treatment. These photos are used to both get an overview of the grey hair intensity and, by their quality, to work on a smaller isolated area.
The evaluation of the area occupied by grey/white hair was made in the photos with the NIH-USA™ Image J software by targeting the areas of interest.
Commonly, a short hair size (2 cm for example) was requested, except for test site 2, and that this size be the same for a volunteer at different measurement times to facilitate before-after comparisons.
Also, in common, each original photo, in color, was converted to an image with grey levels, the same level filter (thresholding operation) was applied before and after to the photos of the same volunteer. Non-black hair where thus selected. At the end, a binarization operation (black/white) was carried out to separate the non-black hairs (grey and white) from the blacks and to quantify the former.

[3] = test system: white and non-white hairs of volunteers; assay: In-vivo non-white/white hair ratio by TrichoScan micro-photos; set-up: species or system human; settings: lotion 90 ppm, 18 volunteers, temples, T 4 m
Protocol: as §4
Only one study (at site 2) used this technology (a new tool for analyzing hair growth) which has the advantage of providing data on a very small area and seeing the hair individually. The scalp area is identified and shaved a few days before the photo, and this at different times. Widely used for the study of hair loss, with this technology, thanks to its high magnification, it is also possible to work on hair coloring. The TrichoScan® system includes an epiluminescence microcamera system.
2.4—Evaluation of the Number of White Hairs and Non-White Hairs The TrichoScan® software was used to determine the number of white hairs, the number of black hairs and the calculation of the black/white ratio. This ratio increases with the number of dark hairs when the treatment acts.

[4] = 7 volunteers, behind the head, T 3 m
[5] = 7 volunteers, behind the head, T 6 m (3 months after the last application)
[6] = 10 volunteers, top of the head, T 4 m
[7] = 10 volunteers, top of the head, T 8 m (4 months after the last application)
[8] = lotion 90 ppm, 5 ml/d, 17 volunteers, one side (profile), T 3 m
[9] = lotion 90 ppm, 5 ml/d, 21 volunteers, behind the head, T 3 m
[10] = lotion 90 ppm, 5 ml/d, 21 volunteers, one side (profile)/temple, T 3 m
[11] = lotion 90 ppm, 5 ml/d, 25 volunteers, one side (profile), T 3 m
[12] = lotion 90 ppm, 5 ml/d, site 2, 18 volunteers, top of the head, T 4 m
[13] = lotion 90 ppm, 5 ml/d, site 2, 19 volunteers, top of the head, T3 m
[14] = lotion 90 ppm, 17 volunteers, one side (profile), T 3 m
[15] = lotion 90 ppm, 21 volunteers, behind the head, T 3 m
[16] = lotion 90 ppm, 21 volunteers, one side (profile)/temple, T 3 m
[17] = lotion 90 ppm, 25 volunteers, one side (profile), T 3 m

CCCCCCCCCCCCCCCC(=O)N1CCC[C@H]1C(=O)N1CCC[C@H]1C(=O)O [Pal-PP-OH, palmitoyl-prolyl-proline] (HELM PEPTIDE1{[CCCCCCCCCCCCCCCC(=O)[*:2]].P.P}$$$$V2.0)
Catalase activity, Variation (%) (catalase; 10 ppm, n = 3): +31%; p < 0.01
Catalase activity, Variation (%) (catalase; 12.5 ppm, n = 3): +37%; p < 0.01
Catalase activity, Variation (%) (catalase; 12.5 ppm, n = 3, listed as peptide according to the invention): +37%
expression of the BCL-2 gene, Variation (%) (BCL-2 gene; 10 ppm, n = 4): +62%; p < 0.01
expression of the BCL-2 gene, Variation (%) (BCL-2 gene; 12.5 ppm, n = 4): +99%; p < 0.01
expression of the BCL-2 gene, Variation (%) (BCL-2 gene; 12.5 ppm, n = 4, listed as peptide of the invention): +99%
variation in the expression of TYRP1 gene (TYRP1; 10 ppm): +42%; p < 0.01
variation in the expression of TYRP1 gene (TYRP1; 12.5 ppm): +54%; p < 0.01
dark pixels corresponding to the deposition of melanin, vs control follicles ([1]; 6 follicles): 11.6 times
Melanin, Quantification by image analysis; % area occupied by black pixels ([1]; follicle bulb, vs control, n = 6 follicles): ×11.6; p < 0.01
MC1R in the lower sheaths, visual estimation vs control (MC1R): increased more
MC1R in the bulb, visual estimation compared to T0 (MC1R; stable in the control case): increased
Grey hair density, Maximum [2, 4]: −70%
Grey hair density, Repondents [2, 4]: 100%
Grey hair density, Moyenne (%) ([2]; 7 volunteers, behind the head, T 3 m (end of 3 months of application)): 3.14%
Grey hair density, Maximum [2, 5]: −60%
Grey hair density, Moyenne (%) [2, 5]: 3.00%
Grey hair density, Repondents [2, 5]: 100%
Grey hair density, Maximum [2, 6]: −22%
Grey hair density, Repondents [2, 6]: 100%
Grey hair density, Moyenne (%) ([2]; 10 volunteers, top of the head, T 4 m (end of 4 months of application)): 39.36%
Grey hair density, Variation vs. T0 ([2]; 10 volunteers, top of the head, T 4 m (end of 4 months of application), listed as peptide according to the invention): −15.04%
Grey hair density, Maximum [2, 7]: −45%
Grey hair density, Moyenne (%) [2, 7]: 36.04%
Grey hair density, Repondents [2, 7]: 80%
Grey hair density, Variation vs. T0 ([2]; 10 volunteers, top of the head, T 8 m (4 months after the last application), listed as peptide according to the invention): −22.20%
decrease of the grey hair density on the temples, on average (3 tests) ([2]; after 3 months of application): 32.4%
decrease of the grey hair density ([2]; after 3 months of application, back of the head, 21 volunteers): 31.9%
decrease of the grey hair density ([2]; after 3 months of application, temples, 21 volunteers): 37.5%
Grey hair density, Mean (%) [2, 8]: 7.50%
Grey hair density, Variation vs. T0 [2, 8]: −21.1%
Grey hair density, Mean (%) [2, 9]: 3.28%
Grey hair density, Variation vs. T0 [2, 9]: −31.9%
Grey hair density, Mean (%) [2, 10]: 4.78%
Grey hair density, Variation vs. T0 [2, 10]: −37.5%
Grey hair density, Mean (%) [2, 11]: 1.90%
Grey hair density, Variation vs. T0 [2, 11]: −38.7%
Grey hair density, Mean (%) [2, 12]: 39.78%
Grey hair density, Variation vs. T0 [2, 12]: −10.90%
Grey hair density, Mean (%) [2, 13]: 40.22%
Grey hair density, Variation vs. T0 [2, 13]: −8.80%
Grey hair density, Maximum variation [2, 14]: −67%
Grey hair density, respondents [2, 14]: 76%
Grey hair density, Maximum variation [2, 15]: −70%
Grey hair density, respondents [2, 15]: 95%
Grey hair density, Maximum variation [2, 16]: −70%
Grey hair density, respondents [2, 16]: 100%
Grey hair density, Maximum variation [2, 17]: −86%
Grey hair density, respondents [2, 17]: 68%
Grey hair density, respondents, mean of 3 studies ([2]; lotion 90 ppm, column Mean T 3 m vs. T0, one side (profile)): 81%
Grey hair density, Variation vs. T0, Mean T 3 m vs. T0 of 3 studies ([2]; lotion 90 ppm, mean of the 3 studies (21, 25, 17 volunteers), one side (profile), T 3 m): −32.43%
Grey hair density, Maximum ([2]; lotion 90 ppm, site 2, 18 volunteers, top of the head, T 4 m): −23%
Grey hair density, respondents ([2]; lotion 90 ppm, site 2, 18 volunteers, top of the head, T 4 m, listed as peptide according to the invention): 84%
Grey hair density, Maximum ([2]; lotion 90 ppm, site 2, 19 volunteers, top of the head, T3 m): −26%
Grey hair density, respondents ([2]; lotion 90 ppm, site 2, 19 volunteers, top of the head, T3 m, listed as peptide according to the invention): 79%
decrease in grey/white hair ([2]; top of the head, T 3 months): 8.8%
decrease in grey/white hair ([2]; top of the head, after 4 months of use): 10.9%
non-white/white hair Ratio, Maximum (variation) [3]: +385%
non-white/white hair Ratio, Mean [3]: 2.56
non-white/white hair Ratio, respondents [3]: 72%
non-white/white hair Ratio, % Variation vs. T0 ([3]; listed as peptide according to the invention): approximately +27.4%
non-white/white hair Ratio, % Variation vs. T0 ([3]; listed as peptide of the invention): +27.4%
